# Reference: patent publication US12378224B2 (Dong-A Socio Holdings Co., Ltd., priority 2016, dated 2025)
# pIC50: −log10 of the molar value.
# Target: human c-MER catalytic domain (Homo sapiens (Human), UniProt Q12866)
# Assay: TR-FRET Kinase Activity Biochemical Assay (LanthaScreen)
# Settings: 10 uM ATP, 1 hour, kinase not given
# Summary of the method: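 Activity was quantified as the ratio of 495 nm to 520 nm emission (excitation 340 nm) in a LanthaScreen TR-FRET format. The enzyme was the human c-MER catalytic domain, and the substrate was fluorescein-poly-GT. Detection used 2 nM Tb anti-phosphotyrosine antibody for 30 min after termination with 10 mM EDTA.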
# Sequence of human c-MER catalytic domain (Q12866 587-858): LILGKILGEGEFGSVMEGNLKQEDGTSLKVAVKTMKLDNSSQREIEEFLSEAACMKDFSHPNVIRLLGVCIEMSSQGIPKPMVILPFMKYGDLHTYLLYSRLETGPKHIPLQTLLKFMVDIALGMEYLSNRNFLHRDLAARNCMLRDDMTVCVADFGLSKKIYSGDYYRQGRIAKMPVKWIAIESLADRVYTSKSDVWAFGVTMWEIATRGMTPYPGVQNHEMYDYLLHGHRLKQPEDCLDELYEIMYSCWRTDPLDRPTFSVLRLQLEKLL
row,pIC50,Structure (SMILES)
1,6.00 to 7.00,"Cc1n[nH]c(C)c1-c1ccc(C(=O)N2CC[C@@H](NC(=O)c3cc(-c4cnn(C)c4)cnc3N)C2)cc1 [Example 518, (R)-2-amino-N-(1-(4-(3,5-dimethyl-1H-pyrazol-4-yl)benzoyl)pyrrolidin-3-yl)-5-(1-methyl-1H-pyrazol-4-yl)nicotinamide]"
2,6.00 to 7.00,"Cc1nn(-c2ccc(N)cc2)c(C)c1-c1ccc(C(=O)N2CC[C@@H](NC(=O)c3cc(-c4cnn(C)c4)cnc3N)C2)cc1 [Example 520, (R)-2-amino-N-(1-(4-(1-(4-aminophenyl)-3,5-dimethyl-1H-pyrazol-4-yl)benzoyl)pyrrolidin-3-yl)-5-(1-methyl-1H-pyrazol-4-yl)nicotinamide]"
3,6.00 to 7.00,"Cc1nn(C)c(C(F)(F)F)c1-c1ccc(C(=O)N2CC[C@@H](NC(=O)c3cc(-c4cnn(C)c4)cnc3N)C2)cc1 [Example 521, (R)-2-amino-N-(1-(4-(1,3-dimethyl-5-(trifluoromethyl)-1H-pyrazol-4-yl)benzoyl)pyrrolidin-3-yl)-5-(1-methyl-1H-pyrazol-4-yl)nicotinamide]"
4,7.00 to 8.00,"COc1ccsc1-c1ccc(C(=O)N2CC[C@@H](NC(=O)c3cc(-c4cnn(C)c4)cnc3N)C2)cc1 [Example 524, (R)-2-amino-N-(1-(4-(3-methoxythiophen-2-yl)benzoyl)pyrrolidin-3-yl)-5-(1-methyl-1H-pyrazol-4-yl)nicotinamide]"
5,7.00 to 8.00,"CN(C)c1ccc(Oc2ccc(-c3ccc(C(=O)N4CC[C@@H](NC(=O)c5cc(-c6cnn(C)c6)cnc5N)C4)cc3)cc2)cc1 [Example 529, (R)-2-amino-N-(1-(4′-(4-(dimethylamino)phenoxy)-[1,1′-biphenyl]-4-carbonyl)pyrrolidin-3-yl)-5-(1-methyl-1H-pyrazol-4-yl)nicotinamide]"
6,7.00 to 8.00,"Cn1cc(-c2cnc(N)c(C(=O)N[C@@H]3CCN(C(=O)c4ccc(-c5ccc(Oc6cccc(N)c6)cc5)cc4)C3)c2)cn1 [Example 530, (R)-2-amino-N-(1-(4′-(3-aminophenoxy)-[1,1′-biphenyl]-4-carbonyl)pyrrolidin-3-yl)-5-(1-methyl-1H-pyrazol-4-yl)nicotinamide]"
7,7.00 to 8.00,"Cn1cc(-c2cnc(N)c(C(=O)N[C@@H]3CCN(C(=O)c4ccc(-c5ccc(OC6CCNCC6)cc5)cc4)C3)c2)cn1 [Example 531, (R)-2-amino-5-(1-methyl-1H-pyrazol-4-yl)-N-(1-(4′-(piperidin-4-yloxy)-[1,1′-biphenyl]-4-carbonyl)pyrrolidin-3-yl)nicotinamide]"
8,6.00 to 7.00,"Cn1cc(-c2cnc(N)c(C(=O)N[C@@H]3CCN(C(=O)c4ccc(-c5ccc(OC6CCNC6)cc5)cc4)C3)c2)cn1 (stereo partly drawn) [Example 532, 2-amino-5-(1-methyl-1H-pyrazol-4-yl)-N-((3R)-1-(4′-(pyrrolidin-3-yloxy)-[1,1′-biphenyl]-4-carbonyl)pyrrolidin-3-yl)nicotinamide]"
9,7.00 to 8.00,"Cn1cc(-c2cnc(N)c(C(=O)N[C@@H]3CCN(C(=O)c4ccc(-c5ccc(Oc6ccc(N)cc6)cc5F)cc4)C3)c2)cn1 [Example 533, (R)-2-amino-N-(1-(4′-(4-aminophenoxy)-2′-fluoro-[1,1′-biphenyl]-4-carbonyl)pyrrolidin-3-yl)-5-(1-methyl-1H-pyrazol-4-yl)nicotinamide]"
10,7.00 to 8.00,"Cc1ccc(-c2ccc(C(=O)N3CC[C@@H](NC(=O)c4cc(-c5cnn(C)c5)cnc4N)C3)cc2C)s1 [Example 536, (R)-2-amino-5-(1-methyl-1H-pyrazol-4-yl)-N-(1-(3-methyl-4-(5-methylthiophen-2-yl)benzoyl)pyrrolidin-3-yl)nicotinamide]"
11,7.00 to 8.00,"Cn1cc(-c2cnc(N)c(C(=O)N[C@@H]3CCN(C(=O)c4ccc(-c5ccc(C#N)s5)cc4)C3)c2)cn1 [Example 537, (R)-2-amino-N-(1-(4-(5-cyanothiophen-2-yl)benzoyl)pyrrolidin-3-yl)-5-(1-methyl-1H-pyrazol-4-yl)nicotinamide]"
